From patent US20220227765A1, “PYRIDO-INDOLE ANALOGUES AS GPX4 INHIBITORS” (Ferro Therapeutics, Inc., priority 2019, published 2022)
In brackets after ≈: the same amount, converted by molar mass. Where two headings read alike, the source gives them in different places.

Legend:
[1] = Rat hepatocyte metabolic stability; type: in vitro ADME; settings: for half-life / hepatocyte CLint: rat hepatocytes; for half-life: read-out: rat hepatocytes T1/2; for hepatocyte CLint: read-out: rat hepatocytes h Clintr (μL/min/10^6 cells)
[2] = test system: SJSA-1; assay: Cell proliferation (Alamar Blue) assay, SJSA-1; type: cell-based, human
In short: (§1)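 Cells were seeded at 5000 cells/well and grown 16-24 h at 37° C./5% CO2. They were treated 24 h with compound at 10-0.0005 μM (3-fold dilutions, 1% DMSO). Viability was read by Alamar Blue fluorescence (ex 540/em 590 nm) after 1.5 h, and IC50 came from a variable-slope sigmoidal fit.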

[3] = Human blood stability; type: in vitro ADME
[4] = Rat IV pharmacokinetics (2 mg/kg); type: in vivo; settings: male, SD, plasma
Description: Institutional Animal Ethical Committee (IAEC) of Jubilant Biosys (IAEC/JDC/2019/188R (for Mice) and IAEC/JDC/2019/189R (for Rat) nominated by CPCSEA (Committee for the Purpose of Control and Supervision of Experiments on Animals) approved the mice and rat pharmacokinetic experiments. Male Balb/c mice (˜6-8 weeks old with body weight range of 22-25 g) and male SD rats (6-8 weeks old with body weight range of 200-250 g) were procured from Vivo Biotech, Hyderabad, India. Animals were quarantined in Jubilant Biosys Animal House for a period of 7 days with a 12:12 h light: dark cycles, and prior to the study the animals were stratified as per body weight.
B) Procedure for rat: Intravenous and oral pharmacokinetics study was done at a dose 2 and 10 mg/kg at dose volume of 2 and 10 mL/Kg. Serial blood sampling was done and at each time point (˜200 μL) were collected from retro-orbital plexus at 0.083 (Only for IV), 0.25, 0.5, 1, 2, 4, 8, 10 (only for PO) and 24 h. Blood samples were collected in tubes containing K2.EDTA as anticoagulant and centrifuged for 5 min at 10,000 rpm in a refrigerated centrifuge (Biofuge, Heraeus, Germany) maintained at 4° C. for plasma separation.
Group I (IV) received test compound intravenously by tail vein at 2 mg/Kg in solution formulation prepared using 30% Kolliphore EL in WFI; dose volume: 2 mL/Kg; strength: 1 mg/mL.
Blood concentration-time data of test compound was analyzed by non-compartmental method using Phoenix WinNonlin Version 8.1.

[5] = Human hepatocyte metabolic stability; type: in vitro ADME; settings: for half-life / hepatocyte CLint: human hepatocytes; for half-life: read-out: human hepatocytes T1/2; for hepatocyte CLint: read-out: human hepatocytes h Clintr (μL/min/10^6 cells)
[6] = test system: A431; assay: Cell proliferation (Alamar Blue) assay, A431; type: cell-based, human; settings: Homo sapiens, A-431, 24 h
In short: as §1

[7] = test system: 786-O; assay: Cell proliferation (Alamar Blue) assay, 786-O; type: cell-based, human
In short: as §1

[8] = Kinetic solubility (PBS, pH 7.4); type: physicochemical; settings: aqueous buffer, kinetic from dmso stock
[9] = CD-1, mouse, plasma, 2 μM
[10] = Equilibrium solubility at different pHs and with SBECD; type: physicochemical; settings: thermodynamic from solid
[11] = Mouse plasma protein % unbound (ultracentrifuge method); type: in vitro ADME; settings: for Mouse Plasma Protein % Unbound (Ultracentrifuge method, 4 h at 37° C.): Table B-6
[12] = CD-1 Mouse Whole Blood Stability Assay; type: in vitro ADME; settings: incubation at 37° C.
[13] = in vitro; settings: CD-1, mouse, plasma
[14] = Homo sapiens, SJSA-1, 24 h, Table B-3, head prints SJSB-1, 24 h, read-out: IC50 (μM) SJSB-1
[15] = Homo sapiens, 786-0, 24 h, Table B-3, 786-O cells
[16] = aqueous buffer, pH 3.0, read-out: Eq. solubility pH 3.0
[17] = aqueous buffer, pH 3.0 PBS buffer, read-out: Eq. solubility pH 3.0 PBS buffer
[18] = aqueous with cosolvent or surfactant or cyclodextrin, 20% SBECD (sulfobutyl ether cyclodextrin), read-out: Eq. solubility 20% SBECD

Q: With `O=C(CCl)N1[C@@H](CC2CC2)Cc2c([nH]c3ccccc23)[C@@H]1c1ccc(NC23CC4CC(CC(C4)C2)C3)cc1` [Compound B-36] as the compound, how does the “rat hepatocytes extr. Ratio” value [1] read?
A: 0.7

Q: What about the “rat hepatocytes % met @ 180 min” value [1] of the same compound?
A: 72%

Q: What about the half-life [1] of the same compound?
A: 107 min

Q: And the hepatocyte CLint [1]?
A: 26 µL/min/1e6 cells

Q: And the IC50 [2, 14]?
A: 0.001 µM

Q: What about the “human blood stability % remaining” value ([3]; 15 min) of the same compound?
A: ~100%_15

Q: What about the “human blood stability % remaining” value ([3]; 30 min) of the same compound?
A: 96%_30

Q: And the “human blood stability % remaining” value ([3]; 45 min)?
A: 82%_45

Q: What about the “human blood stability % remaining” value ([3]; 60 min) of the same compound?
A: 77%_60

Q: And the “human blood stability % remaining” value ([3]; 120 min)?
A: 51%_120

Q: What about the AUC(0-t) ([4]; read-out: Rat IV-PK AUC (0-t)) of the same compound?
A: 431 ng·h/mL

Q: And the clearance ([4]; read-out: Rat IV-PK CL)?
A: 87 mL/min/kg

Q: And the half-life ([4]; read-out: Rat IV-PK T1/2)?
A: 30 min

Q: And the Vd ([4]; read-out: Rat IV-PK Vd)?
A: 3.5 L/kg

Q: What about the “human hepatocytes extr. Ratio” value [5] of the same compound?
A: 0.13

Q: What about the “human hepatocytes % met @ 180 min” value [5] of the same compound?
A: 3.5%

Q: What about the half-life [5] of the same compound?
A: 41.1 h

Q: And the hepatocyte CLint [5]?
A: 1.1 µL/min/1e6 cells

Q: What about the IC50 ([6]; Table B-3, A431 cells) of the same compound?
A: 6.7 µM

Q: And the IC50 [7, 15]?
A: 0.001 µM

Q: What about the solubility kinetic ([8]; Table B-4) of the same compound?
A: < 1 µM

Q: Which “% Remaining (t = 4 hr at 37 C.)” value [9] does the source give for `CC(=O)CC(c1ccccc1)c1c(O)c2ccccc2oc1=O` (stereo not shown) [Warfarin, reference compound] here?
A: 101.2%

Q: With `C#CC(=O)N1[C@@H](CCCC)Cc2c([nH]c3c(F)cc(F)cc23)[C@@H]1c1cccnc1` [Compound B-30] as the compound, how does the solubility [10, 16] read?
A: 700 µg/mL (≈ 1780 µM)

Q: And the solubility [10, 17]?
A: 490 µg/mL (≈ 1250 µM)

Q: And the solubility [10, 18]?
A: 240 µg/mL (≈ 610 µM)

Q: What about the IC50 [2, 14] of the same compound?
A: 0.052 µM

Q: And the “Mouse Plasma Protein % Unbound (Ultracentrifuge method, 4 h at 37° C.)” value [11]?
A: Not stable

Q: What about the “CD-1 Mouse Whole Blood Stability % Remaining” value ([12]; Table B-6, 0 min) of the same compound?
A: 100.0%

Q: And the “CD-1 Mouse Whole Blood Stability % Remaining” value ([12]; Table B-6, 30 min)?
A: 1.9%

Q: And the “CD-1 Mouse Whole Blood Stability % Remaining” value ([12]; Table B-6, 60 min)?
A: 0.5%

Q: What about the IC50 ([6]; Table B-3, A431 cells) of the same compound?
A: > 10 µM

Q: And the IC50 [7, 15]?
A: 0.03 µM

Q: And the solubility kinetic ([8]; Table B-7)?
A: < 1 µM

Q: For `C[C@H]1Cc2c([nH]c3ccccc23)[C@](C)(c2ccc(F)cc2)N1C(=O)CCl` [Compound C-38], which IC50 ([2]; Table C-3, SJSA-1 cells, 24 h, read-out: IC50 (μM) SJSA-1) is on record?
A: 0.332 µM

Q: What about the fraction unbound at 4 h ([11]; mouse, plasma, Table C-4, 4 h at 37° C.) of the same compound?
A: 0.105

Q: What about the “CD-1 Mouse Whole Blood Stability % Remaining” value ([12]; Table C-4, 0 min) of the same compound?
A: 100.0%

Q: What about the “CD-1 Mouse Whole Blood Stability % Remaining” value ([12]; Table C-4, 30 min) of the same compound?
A: 74.4%

Q: What about the “CD-1 Mouse Whole Blood Stability % Remaining” value ([12]; Table C-4, 60 min) of the same compound?
A: 61.0%

Q: And the IC50 ([6]; Table C-3, A431 cells)?
A: 2.95 µM

Q: And the IC50 ([7]; Table C-3, 786-O cells, 24 h)?
A: 0.437 µM

Q: With `C#CC(=O)N1[C@@H](CCCC)Cc2c([nH]c3c(F)cc(F)cc23)[C@@H]1c1ccc(N2CCN(C)CC2)c(F)c1` [Compound B-53] as the compound, how does the IC50 [2, 14] read?
A: 0.051 µM

Q: And the fraction unbound at 2 μM [13]?
A: 0.083

Q: What about the IC50 ([6]; Table B-3, A431 cells) of the same compound?
A: > 10 µM

Q: What about the IC50 [7, 15] of the same compound?
A: 0.029 µM

Q: What about the “% Bound” value [9] of the same compound?
A: 91.7%

Q: What about the “% Remaining (t = 4 hr at 37 C.)” value [9] of the same compound?
A: 22.0%

Q: Which “rat hepatocytes extr. Ratio” value [1] does the source give for `C#CC(=O)N1[C@@H](CCCC)Cc2c([nH]c3c(F)cc(F)cc23)[C@@H]1c1ccccn1` [Compound B-31] here?
A: 0.94

Q: What about the “rat hepatocytes % met @ 180 min” value [1] of the same compound?
A: 100%

Q: And the half-life [1]?
A: 16 min

Q: What about the hepatocyte CLint [1] of the same compound?
A: 174 µL/min/1e6 cells

Q: What about the solubility [10, 16] of the same compound?
A: 15 µg/mL (≈ 38.1 µM)

Q: And the solubility [10, 17]?
A: 4 µg/mL (≈ 10.2 µM)

Q: And the solubility [10, 18]?
A: 47 µg/mL (≈ 119 µM)

Q: And the IC50 [2, 14]?
A: 0.011 µM

Q: And the “Mouse Plasma Protein % Unbound (Ultracentrifuge method, 4 h at 37° C.)” value [11]?
A: Not stable

Q: What about the “human blood stability % remaining” value ([3]; 15 min) of the same compound?
A: 9.7%_15

Q: And the “human blood stability % remaining” value ([3]; 30 min)?
A: 0%_30

Q: What about the “human blood stability % remaining” value ([3]; 45 min) of the same compound?
A: 0%_45

Q: What about the “human blood stability % remaining” value ([3]; 60 min) of the same compound?
A: 0%_60

Q: What about the “human blood stability % remaining” value ([3]; 120 min) of the same compound?
A: 0%_120

Q: And the “CD-1 Mouse Whole Blood Stability % Remaining” value ([12]; Table B-6, 0 min)?
A: 100.0%

Q: And the “CD-1 Mouse Whole Blood Stability % Remaining” value ([12]; Table B-6, 30 min)?
A: 2.1%

Q: What about the “CD-1 Mouse Whole Blood Stability % Remaining” value ([12]; Table B-6, 60 min) of the same compound?
A: 0.2%

Q: And the “human hepatocytes extr. Ratio” value [5]?
A: 0.93

Q: And the “human hepatocytes % met @ 180 min” value [5]?
A: 97%

Q: What about the half-life [5] of the same compound?
A: 0.467 h

Q: And the hepatocyte CLint [5]?
A: 99 µL/min/1e6 cells

Q: And the IC50 ([6]; Table B-3, A431 cells)?
A: 6.6 µM

Q: And the IC50 [7, 15]?
A: 0.009 µM

Q: And the solubility kinetic ([8]; Table B-4)?
A: 3 µM (≈ 1.18 µg/mL)

Q: With `C#CC(=O)N1[C@@H](CCCC)Cc2c([nH]c3c(F)cc(F)cc23)[C@@H]1c1ccc(N)cc1` [Compound B-54] as the compound, how does the IC50 [2, 14] read?
A: 0.069 µM

Q: What about the fraction unbound at 2 μM [13] of the same compound?
A: 0.097

Q: And the IC50 ([6]; Table B-3, A431 cells)?
A: > 10 µM

Q: And the IC50 [7, 15]?
A: 0.046 µM

Q: And the “% Bound” value [9]?
A: 90.3%

Q: And the “% Remaining (t = 4 hr at 37 C.)” value [9]?
A: 31.6%
